From patent US20240002368A1 (QILU REGOR THERAPEUTICS INC., priority 2020, published 2024)
Where two headings read alike, the source gives them in different places.

Test system: STING pathway
Experiment: IFN β reporter assay (HTRF, 2′3′-cGAMP-stimulated THP1 cells)
Format: cell-based, human
Conditions: Homo sapiens
Description: STING pathway deactivation by the compounds described herein was measured using THP1 cells. The THP1 Cells (obtained from ATCC, Cat #TIB-202) were maintained in RPMI-1640 (Gibco, Cat #22400105), 10% FBS, 1% Pen-Strep, 0.05 mM 2-mercaptoethanol. For STING activation, 2′3′-cGAMP (MW 718.38, obtained from Invivogen) was used and prepared in serum-free RPMI-1640 media. Growth media: RPMI-1640 (HEPES, glutamine), 10% FBS, 1% Pen-Strep, 0.05 mM 2-mercaptoethanol. Assay media: RPMI-1640 (HEPES, glutamine), 0.5% FBS. 2′3′-cGAMP: Dissolve 2′3′-cGAMP to 10 mM stock in H2O.
The cells were prepared and seeded at 100K, 90 μL/well with assay media in cell culture plate (Greiner 655180). The compounds were added in 96-well tissue culture plates by Tecan D300e for a final concentration of 0.00137-3 μM.
Lipo2000/3000 and 2′3′-cGAMP stock solutions were diluted respectively in serum-free RPMI-1640 media. The diluted 2′3′-cGAMP and Lipo (V/V=1:1) were mixed and stood for 15 min at room temperature. 10 μL 2,3-cGAMP/Lipofectamine (10×) was transferred to the 96-well assay plate with a final 2′3′-cGAMP concentration of 5 μM. The cell plates were centrifuged at 1000 rpm for 5 min after incubating at 37° C., 5% CO2 overnight.
All reagents (human IFN beta kit, Cisbio 62HIFNBPEG) were warmed to room temperature for at least 30 min before the assay. The instructions of the kit were followed to prepare the detection media. 14 μL of cell supernatants was transferred into their dedicated wells in 384-well plate. Then 2 μL of the activation reagent solution and 4 μL of the mixed antibody solution were added to all wells. The plate was sealed and incubated for 3 h at room temperature.
The HTRF signal was read in Envision (PerkinElmer). IFN β reporter activity was then measured. The calculated ratio is the signal at 665 nm/signal at 615 nm. IC50 values are calculated by using standard methods known in the art.

[1] = THP-1, read-out: IFN β reporter activity IC50
[2] = THP-1, THP1 cells, 5 μM 2′3′-cGAMP, IFN β secretion inhibition, class symbols, read-out: IFN β reporter activity IC50

SMILES: O=C(Nc1c[nH]c2ccccc12)c1nn(CC2CC2)c2cc(C(F)(F)F)ccc12 [Example 30]
- IC50 [1]: 50 to 200 nM

SMILES: Cn1cc(C(=O)Nc2c[nH]c3ccc(F)cc23)c2cc(F)c(CN3CCC(F)(F)CC3)cc21 [Example 98]
- IC50 [2]: < 50 nM

SMILES: C[C@H]1COCCN1c1cc2c(cc1F)c(C(=O)Nc1c[nH]c3ccc(F)cc13)cn2C [Example 49]
- IC50 [2]: 200 to 1000 nM

SMILES: O=C(Nc1c[nH]c2cc(F)c(F)cc12)c1nc2ccncc2s1 [Comparator B, reference compound]
- IC50 (THP-1, THP1 cells, 5 μM 2′3′-cGAMP, IFN β secretion inhibition, numeric values (comparators), read-out: IFN β reporter activity IC50): > 3000 nM

SMILES: O=C(O)c1ccc2c(C(=O)Nc3c[nH]c4ccc(F)cc34)n[nH]c2c1 [Example 88, 3-[(5-fluoro-1H-indol-3-yl)carbamoyl]-1H-indazole-6-carboxylic acid]
- IC50 [2]: > 1000 nM

SMILES: O=C(Nc1c[nH]c2ccc(F)cc12)c1n[nH]c2cc(Cl)c(Cl)cc12 [Example 12]
- IC50 [2]: < 50 nM

SMILES: O=C(Nc1c[nH]c2cc(F)c(F)cc12)c1c[nH]c2cc(C(F)(F)F)ccc12 [Example 52]
- IC50 [2]: < 50 nM

SMILES: Cn1cc(C(=O)Nc2c[nH]c3ccc(F)cc23)c2cc(F)c(C3=CCOCC3)cc21 [Example 80]
- IC50 [2]: 50 to 200 nM

SMILES: CNCc1ccc2[nH]cc(NC(=O)c3cn(C)c4cc(C(F)(F)F)ccc34)c2c1 [Example 110, 1-methyl-N-(5-((methylamino)methyl)-1H-indol-3-yl)-6-(trifluoromethyl)-1H-indole-3-carboxamide]
- IC50 [2]: > 1000 nM

SMILES: CC(C)n1nc(C(=O)Nc2c[nH]c3ccccc23)c2ccc(C(F)(F)F)cc21 [Example 5]
- IC50 [1]: 200 to 1000 nM

SMILES: O=C(Nc1c[nH]c2cc(F)c(F)cc12)c1n[nH]c2nc(OCC(F)(F)F)ccc12 [Example 70]
- IC50 [2]: 50 to 200 nM

SMILES: Cn1cc(C(=O)Nc2c[nH]c3ccc(C(=O)O)cc23)c2ccc(C(F)(F)F)cc21 [Example 87, 3-[[1-methyl-6-(trifluoromethyl)indole-3-carbonyl]amino]-1H-indole-5-carboxylic acid]
- IC50 [2]: > 1000 nM

SMILES: CN(Cc1cc2c(cc1F)c(C(=O)Nc1c[nH]c3ccc(F)cc13)cn2C)CC(F)(F)F [Example 92, 5-fluoro-N-(5-fluoro-1H-indol-3-yl)-1-methyl-6-[[methyl(2,2,2-trifluoroethyl)amino]methyl]indole-3-carboxamide]
- IC50 [2]: 50 to 200 nM

SMILES: Cn1cc(C(=O)Nc2c[nH]c3ccc(F)cc23)c2ccc(Cl)nc21 [Example 71]
- IC50 [1]: 50 to 200 nM

SMILES: Cn1cc(C(=O)Nc2c[nH]c3ccc(F)cc23)c2ccc(Cl)cc21 [Example 32]
- IC50 [1]: < 50 nM

SMILES: O=C(Nc1c[nH]c2ccc(F)cc12)c1n[nH]c2cc(N3CCOCC3)ccc12 [Example 60, N-(5-fluoro-1H-indol-3-yl)-6-morpholino-1H-indazole-3-carboxamide]
- IC50 [2]: 200 to 1000 nM

SMILES: O=C(Nc1c[nH]c2cc(F)c(F)cc12)c1cnn2cc(Br)ccc12 [Example 59]
- IC50 [2]: 200 to 1000 nM

SMILES: O=C(Nc1c[nH]c2ccc(F)cc12)c1cc2ccc(Br)cn2n1 [Example 57]
- IC50 [2]: < 50 nM

SMILES: O=C(Nc1c[nH]c2ccc(F)cc12)c1n[nH]c2cc(Oc3ccncc3)ccc12 [Example 62]
- IC50 [2]: > 1000 nM

SMILES: Cn1cc(C(=O)Nc2c[nH]c3ccc(F)cc23)c2ccc(C(F)(F)F)cc21 [Example 20]
- IC50 [1]: < 50 nM

SMILES: C#Cc1ccc2c(C(=O)Nc3c[nH]c4ccc(F)cc34)n[nH]c2c1 [Example 14]
- IC50 [2]: 50 to 200 nM

SMILES: CN1CCC(c2cc3c(cc2Cl)c(C(=O)Nc2c[nH]c4ccc(C#N)cc24)cn3C)CC1 [Example 120, 5-chloro-N-(5-cyano-1H-indol-3-yl)-1-methyl-6-(1-methyl-4-piperidyl)indole-3-carboxamide]
- IC50 [2]: > 1000 nM

SMILES: Cn1cc(C(=O)Nc2c[nH]c3ccc(C#N)cc23)c2ccc(C(F)(F)F)cc21 [Example 36]
- IC50 [1]: < 50 nM

SMILES: O=C(Nc1c[nH]c2ccc(F)cc12)c1cn(C2CC2)c2cc(C(F)(F)F)ccc12 [Example 67, 1-cyclopropyl-N-(5-fluoro-1H-indol-3-yl)-6-(trifluoromethyl)indole-3-carboxamide]
- IC50 [1]: < 50 nM

SMILES: N#Cc1ccc2[nH]cc(NC(=O)c3cn(C4CC4)c4nc(O[C@@H]5CCOC5)ccc34)c2c1 [Example 43]
- IC50 [1]: 200 to 1000 nM

SMILES: Cc1[nH]c2ccc(F)cc2c1NC(=O)c1cn(C)c2cc(C(F)(F)F)ccc12 [Comparator C, reference compound]
- IC50 [1]: 11000 nM

SMILES: CCCCc1ccc2c(C(=O)Nc3c[nH]c4ccc(F)cc34)n[nH]c2c1 [Example 61]
- IC50 [2]: 50 to 200 nM

SMILES: O=C(Nc1c[nH]c2cc(F)c(F)cc12)c1n[nH]c2ncc(Br)cc12 [Example 68]
- IC50 [2]: 50 to 200 nM

SMILES: O=C(Nc1c[nH]c2ccc(F)cc12)c1n[nH]c2nc(OCC(F)(F)F)ccc12 [Example 69]
- IC50 [2]: 50 to 200 nM

SMILES: Cn1nc(C(=O)Nc2c[nH]c3ccccc23)c2cc(Br)ccc21 [Example 3]
- IC50 [1]: 50 to 200 nM

SMILES: O=C(Nc1c[nH]c2ccc(C(F)(F)F)cc12)c1n[nH]c2cc(C(F)(F)F)ccc12 [Example 10]
- IC50 [2]: 50 to 200 nM

SMILES: Cn1nc(C(=O)Nc2c[nH]c3ccccc23)c2ccc(Br)cc21 [Example 4]
- IC50 [1]: 50 to 200 nM

SMILES: CC(NCC(F)(F)F)c1cc2c(cc1F)c(C(=O)Nc1c[nH]c3ccc(F)cc13)cn2C (racemic) [Example 107, rac-5-fluoro-N-(5-fluoro-1H-indol-3-yl)-1-methyl-6-[1-(2,2,2-trifluoroethylamino)ethyl]indole-3-carboxamide]
- IC50 [2]: 50 to 200 nM

SMILES: Cn1cc(C(=O)Nc2c[nH]c3ccc(F)cc23)c2ccc(C3CCOCC3)cc21 [Example 73]
- IC50 [2]: 50 to 200 nM

SMILES: COCCOc1ccc2c(C(=O)Nc3c[nH]c4ccc(F)cc34)cn(C3CC3)c2n1 [Example 46]
- IC50 [1]: 50 to 200 nM

SMILES: O=C(Nc1c[nH]c2ccc(F)cc12)c1cnn2cc(C(F)(F)F)ccc12 [Example 66]
- IC50 [2]: 200 to 1000 nM

SMILES: CN(Cc1ccc2[nH]cc(NC(=O)c3cn(C)c4cc(C(F)(F)F)ccc34)c2c1)C(=O)OC(C)(C)C [Example 39]
- IC50 [2]: 50 to 200 nM

SMILES: Cn1cc(C(=O)Nc2c[nH]c3ccc(F)cc23)c2cc(F)c(CNC(C)(C)C)cc21 [Example 96]
- IC50 [2]: > 1000 nM

SMILES: Cn1cc(C(=O)Nc2c[nH]c3ccc(S(C)(=O)=O)cc23)c2ccc(C(F)(F)F)cc21 [Example 37]
- IC50 [2]: > 1000 nM

SMILES: CN1CC=C(c2cc3c(cc2Cl)c(C(=O)Nc2c[nH]c4ccc(C#N)cc24)cn3C)CC1 [Example 119, 5-chloro-N-(5-cyano-1H-indol-3-yl)-1-methyl-6-(1-methyl-3,6-dihydro-2H-pyridin-4-yl)indole-3-carboxamide]
- IC50 [1]: > 1000 nM

SMILES: O=C(Nc1c[nH]c2ccc(Br)cc12)c1n[nH]c2cc(C(F)(F)F)ccc12 [Example 15]
- IC50 [2]: < 50 nM

SMILES: O=C(Nc1c[nH]c2ccccc12)c1n[nH]c2cc(C3CCOCC3)ccc12 [Example 16]
- IC50 [2]: 50 to 200 nM

SMILES: CN1CC(n2cc(C(=O)Nc3c[nH]c4ccc(F)cc34)c3ccc(C(F)(F)F)cc32)C1 [Example 114, N-(5-fluoro-1H-indol-3-yl)-1-(1-methylazetidin-3-yl)-6-(trifluoromethyl)indole-3-carboxamide]
- IC50 [1]: > 1000 nM

SMILES: CS(=O)(=O)c1ccc2c(C(=O)Nc3c[nH]c4ccc(F)cc34)n[nH]c2c1 [Example 13]
- IC50 [2]: > 1000 nM

SMILES: Cn1nc(C(=O)Nc2c[nH]c3ccccc23)c2ccc(C#N)cc21 [Example 86, 6-cyano-N-(1H-indol-3-yl)-1-methyl-indazole-3-carboxamide]
- IC50 [2]: > 1000 nM

SMILES: O=C(Nc1c[nH]c2cc(F)c(F)cc12)c1c[nH]c2ccccc12 [Example 64]
- IC50 [2]: 50 to 200 nM

SMILES: NC(=O)c1ccc2c(C(=O)N(CC(F)(F)F)c3c[nH]c4cc(F)ccc34)n[nH]c2c1 [Example 89, N-(6-fluoro-1H-indol-3-yl)-N-(2,2,2-trifluoroethyl)-1H-indazole-3,6-dicarboxamide]
- IC50 [2]: 200 to 1000 nM
